Experimental data published in US10894807B2 (Siemens Medical Solutions USA, Inc., priority 2011, dated 2021).

Biological target: human PSMA (Homo sapiens (Human), UniProt Q04609)
Experiment: Enzymatic assay for in vitro evaluation of PSMA inhibitors (fluorescent assay of PSMA activity, NAAG substrate, OPA detection of glutamate)
Assay type: biochemical

Chain of human PSMA (Q04609 whole entry): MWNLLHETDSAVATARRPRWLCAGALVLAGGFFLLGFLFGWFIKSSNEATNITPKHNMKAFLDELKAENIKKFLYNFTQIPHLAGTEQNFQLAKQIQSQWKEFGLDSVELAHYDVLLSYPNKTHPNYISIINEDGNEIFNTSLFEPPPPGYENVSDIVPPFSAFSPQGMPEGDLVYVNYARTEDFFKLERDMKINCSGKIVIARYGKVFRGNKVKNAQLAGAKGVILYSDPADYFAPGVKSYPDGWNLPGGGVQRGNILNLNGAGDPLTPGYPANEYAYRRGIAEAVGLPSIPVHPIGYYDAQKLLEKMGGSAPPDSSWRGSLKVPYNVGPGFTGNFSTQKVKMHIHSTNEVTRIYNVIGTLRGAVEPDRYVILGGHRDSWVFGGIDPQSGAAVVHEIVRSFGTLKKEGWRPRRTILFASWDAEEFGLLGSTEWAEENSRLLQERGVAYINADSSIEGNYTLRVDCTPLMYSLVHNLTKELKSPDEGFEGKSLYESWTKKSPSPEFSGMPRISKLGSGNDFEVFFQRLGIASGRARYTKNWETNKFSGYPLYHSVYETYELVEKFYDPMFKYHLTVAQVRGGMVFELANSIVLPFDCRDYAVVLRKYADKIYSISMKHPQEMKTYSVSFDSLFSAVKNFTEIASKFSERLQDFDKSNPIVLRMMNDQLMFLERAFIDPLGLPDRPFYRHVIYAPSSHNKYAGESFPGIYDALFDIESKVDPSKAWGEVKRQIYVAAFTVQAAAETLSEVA

Row | Ki | PSMA Blkg % (1.0 μM) | SMILES
1 |  | 96% | O=C(O)CC[C@H](NC(=O)N[C@@H](CCCCNC(=O)N1CCN(C(=O)c2cc(C(=O)O)cc(-n3cc(CCCF)nn3)c2)CC1)C(=O)O)C(=O)O [P262, (S)-2-(3-((S)-1-Carboxy-5-(4-(3-carboxy-5-(4-(3-fluoropropyl)-1H-1,2,3-triazol-1-yl)benzoyl)piperazine-1-carboxamido)pentyl)ureido)pentanedioic Acid]
2 | 1.3 nM | 98% | O=C(O)CC[C@H](NC(=O)N[C@@H](CCCCNC(=O)N1CCN(C(=O)c2cc(C(=O)N3CCN(C(=O)NCCCC[C@@H](NC(=O)N[C@H](CCC(=O)O)C(=O)O)C(=O)O)CC3)cc(-n3cc(CCCF)nn3)c2)CC1)C(=O)O)C(=O)O [P263, (2S,2′S)-2,2′-(((((1S,1′S)-((4,4′-(5-(4-(3-Fluoropropyl)-1H-1,2,3-triazol-1-yl)-isophthaloyl)bis(piperazine-1,1′-carbonyl))bis(azanediyl))bis(1-carboxypentane-5,1-diyl))bis(azanediyl))bis(carbonyl))bis(azanediyl))dipentanedioic Acid]
3 |  | 96% | CCN(CC)C(=O)c1cc(C(=O)N2CCN(C(=O)NCCCC[C@H](NC(=O)N[C@@H](CCC(=O)O)C(=O)O)C(=O)O)CC2)cc(-n2cc(CCCF)nn2)c1 [P264, (S)-2-(3-((S)-1-Carboxy-5-(4-(3-(diethylcarbamoyl)-5-(4-(3-fluoropropyl)-1H-1,2,3-triazol-1-yl)benzoyl)piperazine-1-carboxamido)pentyl)ureido)pentanedioic Acid]
4 |  | 97% | O=C(O)CC[C@H](NC(=O)N[C@@H](CCCCNc1nc(F)ccc1[N+](=O)[O-])C(=O)O)C(=O)O [P265, (S)-2-(3-((S)-1-Carboxy-5-((6-fluoro-3-nitropyridin-2-yl)amino)pentyl)ureido)pentanedioic Acid]
5 |  | 82% | O=C(O)CC[C@H](NC(=O)N[C@@H](CCCCNC(=O)c1cc(C(=O)Nc2ccc(C[C@H](NC(=O)N[C@@H](CCC(=O)O)C(=O)O)C(=O)O)cc2)cc(-n2cc(CCCF)nn2)c1)C(=O)O)C(=O)O [P267, (S)-2-(3-((S)-1-Carboxy-2-(4-(3-(((S)-5-carboxy-5-(3-((S)-1,3-dicarboxypropyl)ureido)pentyl)carbamoyl)-5-(4-(3-fluoropropyl)-1H-1,2,3-triazol-1-yl)benzamido)phenyl)ethyl)ureido)pentanedioic Acid]
6 |  | 68% | O=C(O)CC[C@H](NC(=O)N[C@@H](CCCCNC(=O)c1cc(C(=O)N[C@@H](CCC(=O)O)C(=O)O)cc(-n2cc(CCCF)nn2)c1)C(=O)O)C(=O)O [P268, (S)-2-(3-((S)-1-Carboxy-5-(3-(((S)-1,3-dicarboxypropyl)carbamoyl)-5-(4-(3-fluoropropyl)-1H-1,2,3-triazol-1-yl)benzamido)pentyl)ureido)pentanedioic Acid]
7 |  | 66% | O=C(O)CC[C@H](NC(=O)N[C@@H](CCCCNc1ccc([N+](=O)[O-])c(F)n1)C(=O)O)C(=O)O [P269, (S)-2-(3-((S)-1-Carboxy-5-((6-fluoro-5-nitropyridin-2-yl)amino)pentyl)ureido)pentanedioic Acid]
8 | 0.8 nM | 98% | O=C(O)CC[C@H](NC(=O)N[C@@H](CCCCNc1cc(NCCOCCn2cc(CCCF)nn2)ncn1)C(=O)O)C(=O)O [P271, (S)-2-(3-((S)-1-Carboxy-5-((6-((2-(2-(4-(3-fluoropropyl)-1H-1,2,3-triazol-1-yl)ethoxy)ethyl)amino)pyrimidin-4-yl)amino)pentyl)ureido)pentanedioic Acid]
9 | 2.5 nM | 97% | O=C(O)CC[C@H](NC(=O)N[C@@H](CC1CCN(C(=O)c2cc(C(=O)N3CCC(C[C@H](NC(=O)N[C@@H](CCC(=O)O)C(=O)O)C(=O)O)CC3)cc(-n3cc(CCCF)nn3)c2)CC1)C(=O)O)C(=O)O [P272, (S)-2-(3-((S)-1-Carboxy-2-(1-(3-(4-((S)-2-carboxy-2-(3-((S)-1,3-dicarboxypropyl)-ureido)ethyl)piperidine-1-carbonyl)-5-(4-(3-fluoropropyl)-1H-1,2,3-triazol-1-yl)benzoyl)piperidin-4-yl)ethyl)ureido)pentanedioic Acid]
10 | 1.3 nM |  | O=C(O)CC[C@H](NC(=O)N[C@@H](CCCCNC(=O)CC(CC(=O)NCCCC[C@H](NC(=O)N[C@@H](CCC(=O)O)C(=O)O)C(=O)O)NC(=O)Cn1cc(CCCF)nn1)C(=O)O)C(=O)O [P276, (3S,7S,23S,27S)-15-(2-(4-(3-Fluoropropyl)-1H-1,2,3-triazol-1-yl)acetamido)-5,13,17,25-tetraoxo-4,6,12,18,24,26-hexaazanonacosane-1,3,7,23,27,29-hexacarboxylic Acid]
11 | 1.6 nM |  | O=C(O)CC[C@H](NC(=O)N[C@@H](CCc1nc(-c2ccc([N+](=O)[O-])cc2)co1)C(=O)O)C(=O)O [P279, (S)-2-(3-((S)-1-Carboxy-3-(4-(4-nitrophenyl)oxazol-2-yl)propyl)ureido)pentanedioic Acid]
12 | 0.9 nM |  | O=C(O)CC[C@H](NC(=O)N[C@@H](Cc1ccc(NC(=O)CCC(CCC(=O)Nc2ccc(C[C@H](NC(=O)N[C@@H](CCC(=O)O)C(=O)O)C(=O)O)cc2)NC(=O)c2ccc(-n3cc(CCCF)nn3)cc2)cc1)C(=O)O)C(=O)O [P280, (2S,2′S)-2,2′(((((1S,1′S)(((4-(4-(4-(3-Fluoropropyl)-1H-1,2,3-triazol-1-yl)-benzamido)-heptanedioyl)-bis(azanediyl))-bis(4,1-phenylene))-bis(1-carboxyethane-2,1-diyl))-bis(azanediyl))-bis(carbonyl))-bis(azanediyl))-dipentanedioic Acid]
13 | 1.1 nM |  | O=C(O)CC[C@H](NC(=O)N[C@@H](CCCCNC(=O)CCC(CCC(=O)NCCCC[C@H](NC(=O)N[C@@H](CCC(=O)O)C(=O)O)C(=O)O)NC(=O)c1ccc(-n2cc(CCCF)nn2)cc1)C(=O)O)C(=O)O [P282, (3S,7S,25S,29S)-16-(4-(4-(3-Fluoropropyl)-1H-1,2,3-triazol-1-yl)benzamido)-5,13,19,27-tetraoxo-4,6,12,20,26,28-hexaazahentriacontane-1,3,7,25,29,31-hexacarboxylic Acid]

Continued, compound first:

Row | SMILES | Ki | PSMA Blkg % (1.0 μM)
14 | O=C(O)CC[C@H](NC(=O)N[C@@H](CCCCNc1nc(-c2cccc(NC(=O)CCOCCOCCOCCOCCNC(=O)Cn3cc(CCCF)nn3)c2)cs1)C(=O)O)C(=O)O [P254, (S)-2-(3-((S)-1-Carboxy-5-(4-(3-(1-(4-(3-fluoropropyl)-1H-1,2,3-triazol-1-yl)-2-oxo-6,9,12,15-tetraoxa-3-azaoctadecanamido)phenyl)thiazol-2-ylamino)pentyl)ureido)-pentanedioic Acid] | 0.4 nM | 95%
15 | C[C@@](Cc1cccc(NC(=O)CCCn2cc(CCCF)nn2)c1)(NC(=O)N[C@@H](CCC(=O)O)C(=O)O)C(=O)O [P255, (S)-2-(3-((S)-2-Carboxy-1-(3-(4-(4-(3-fluoropropyl)-1H-1,2,3-triazol-1-yl)butanamido)-phenyl)propan-2-yl)ureido)pentanedioic Acid] |  | 62%
16 | C[C@@](Cc1cccc(NC(=O)Cn2cc(CCCF)nn2)c1)(NC(=O)N[C@@H](CCC(=O)O)C(=O)O)C(=O)O [P256, (S)-2-(3-((S)-2-Carboxy-1-(3-(2-(4-(3-fluoropropyl)-1H-1,2,3-triazol-1-yl)acetamido)-phenyl)propan-2-yl)ureido)pentanedioic Acid] |  | 27%
17 | O=C(O)CCC(C(=O)O)N1C(=O)N[C@@H](CC2CCN(C(=O)c3ccc(-n4cc(CCCF)nn4)cc3)CC2)C1=O (stereo partly drawn) [P257, 2-((S)-4-((1-(4-(4-(3-Fluoropropyl)-1H-1,2,3-triazol-1-yl)benzoyl)piperidin-4-yl)methyl)-2,5-dioxoimidazolidin-1-yl)pentanedioic Acid] |  | 5%
18 | NCCOCCOCCOCCOCCn1cc(-c2ccc(C(=O)NCCCC[C@H](NC(=O)N[C@@H](CCC(=O)O)C(=O)O)C(=O)O)cc2)nn1 [P258, (S)-2-(3-((S)-5-(4-(1-(14-Amino-3,6,9,12-tetraoxatetradecyl)-1H-1,2,3-triazol-4-yl)benzamido)-1-carboxypentyl)ureido)pentanedioic Acid] | 41 nM | 
19 | O=C(O)CC[C@H](NC(=O)N[C@@H](CCCCNC(=O)c1cc(C(=O)O)cc(-n2cc(CCCF)nn2)c1)C(=O)O)C(=O)O [P259, (S)-2-(3-((S)-1-Carboxy-5-(3-carboxy-5-(4-(3-fluoropropyl)-1H-1,2,3-triazol-1-yl)benzamido)pentyl)ureido)pentanedioic Acid] |  | 98%
20 | CCN(CC)C(=O)c1cc(C(=O)NCCCC[C@H](NC(=O)N[C@@H](CCC(=O)O)C(=O)O)C(=O)O)cc(-n2cc(CCCF)nn2)c1 [P260, (S)-2-(3-((S)-1-Carboxy-5-(3-(diethylcarbamoyl)-5-(4-(3-fluoropropyl)-1H-1,2,3-triazol-1-yl)benzamido)pentyl)ureido)pentanedioic Acid] |  | 81%
21 | O=C(O)CC[C@H](NC(=O)N[C@@H](CCCCNC(=O)CC[C@H](NC(=O)Cn1cc(CCCF)nn1)C(=O)NCCCC[C@H](NC(=O)N[C@@H](CCC(=O)O)C(=O)O)C(=O)O)C(=O)O)C(=O)O [P261, (3S,7S,14S,23S,27S)-14-(2-(4-(3-Fluoropropyl)-1H-1,2,3-triazol-1-yl)acetamido)-5,13,17,25-tetraoxo-4,6,12,18,24,26-hexaazanonacosane-1,3,7,23,27,29-hexacarboxylic Acid] | 1 nM | 98%
22 | O=C(O)CC[C@H](NC(=O)NC(CCCCNc1nc(NCCN(CCNC(=O)Cn2cc(CCCF)nn2)CCNc2ccc([N+](=O)[O-])c(NCCCCC(NC(=O)N[C@@H](CCC(=O)O)C(=O)O)C(=O)O)n2)ccc1[N+](=O)[O-])C(=O)O)C(=O)O (stereo partly drawn) [P273, (2S,2′S)-2,2′-(((((1S,1′S)-((6,6′-((((2-(2-(4-(3-Fluoropropyl)-1H-1,2,3-triazol-1-yl)acetamido)ethyl)azanediyl)bis(ethane-2,1-diyl))bis(azanediyl))bis(3-nitropyridine-6,2-diyl))bis(azanediyl))bis(1-carboxypentane-5,1-diyl))bis(azanediyl))bis(carbonyl))bis(azanediyl))dipentanedioic Acid] | 0.2 nM | 97%
